Earlier results on two compounds are cited in paper PMC9633261, “Preclinical evaluation and first in human study of Al^18F radiolabeled ODAP-urea-based PSMA targeting ligand for PET imaging of prostate cancer” (Frontiers in Oncology, 2022).

Read-outs that look alike come from different tables or passages of the source.

For the compound `O=C([O-])CN(CCN(CC(=O)[O-])Cc1cc(CCC(=O)NCCCCCC(=O)NCCCC[C@H](NC(=O)N[C@@H](CCC(=O)O)C(=O)O)C(=O)O)ccc1[O-])Cc1cc(CCC(=O)O)ccc1[O-].[68Ga+3].[OH3+]` [^68Ga-PSMA-11], the absorbed dose kidneys runs as follows: (reported by Afshar-Oromieh et al. ref [37]) 0.262 mGy/MBq; (reported by Pfob et al. ref [38]) 0.121 mGy/MBq. Take `O=C(O)CC[C@H](NC(=O)N[C@@H](CCCCNC(=O)c1ccc([18F])nc1)C(=O)O)C(=O)O` [^18F-DCFPyL]: the absorbed dose kidneys (ref [39]) is 0.0945 mGy/MBq.
